From BindingDB's records for doi:10.7270/Q2XP73JZ (The Scripps Research Institute Molecular Screening Center, 2013) come the findings set out here.

In the test the target is T1, Methionine--tRNA ligase (Trypanosoma brucei brucei (strain 927/4 GUTat10.1), UniProt Q38C91).
T1 sequence (Q38C91 whole entry): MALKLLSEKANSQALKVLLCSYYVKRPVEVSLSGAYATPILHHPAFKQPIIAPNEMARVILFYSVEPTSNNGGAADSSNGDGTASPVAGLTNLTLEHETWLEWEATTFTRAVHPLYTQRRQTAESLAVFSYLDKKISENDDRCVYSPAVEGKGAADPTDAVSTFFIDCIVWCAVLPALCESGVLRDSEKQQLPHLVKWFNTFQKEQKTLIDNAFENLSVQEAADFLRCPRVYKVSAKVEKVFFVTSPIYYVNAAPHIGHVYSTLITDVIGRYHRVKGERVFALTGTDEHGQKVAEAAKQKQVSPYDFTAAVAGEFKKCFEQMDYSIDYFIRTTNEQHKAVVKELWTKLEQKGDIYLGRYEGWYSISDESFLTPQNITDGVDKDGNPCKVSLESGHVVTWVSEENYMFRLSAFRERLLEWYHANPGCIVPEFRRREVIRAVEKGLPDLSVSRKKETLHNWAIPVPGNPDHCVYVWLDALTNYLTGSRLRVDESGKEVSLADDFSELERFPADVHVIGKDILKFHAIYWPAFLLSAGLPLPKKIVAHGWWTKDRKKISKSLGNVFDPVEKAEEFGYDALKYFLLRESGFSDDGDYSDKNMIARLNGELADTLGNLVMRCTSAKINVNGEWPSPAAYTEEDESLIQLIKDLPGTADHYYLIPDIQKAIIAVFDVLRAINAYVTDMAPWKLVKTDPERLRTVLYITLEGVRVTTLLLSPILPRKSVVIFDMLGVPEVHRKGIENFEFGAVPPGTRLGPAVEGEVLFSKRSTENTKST

As to `Cc1ccc(C(=O)NN2C(=O)/C(=C/c3nc4ccccc4[nH]3)SC2=S)cc1`, the IC50 (in general, the point on the concentration scale where inhibition reaches its midpoint) is more than 119 µM.

`O=C(NCc1cc(Br)cc(Br)c1OC(=O)c1ccccc1[N+](=O)[O-])c1ccccc1` yielded an IC50 of more than 119 µM.

The compound `COC(=O)C(C=Nc1ccccc1)NC(=O)c1ccc(Cl)cc1Cl` (stereo not drawn) yielded a half-maximal inhibitory concentration (IC50) of 2.71 µM.

On to `N#CC(N=Nc1cc(Cl)cc(Cl)c1)c1nnc2n1CCCCC2` (stereo not drawn), for which the concentration for half-maximal inhibition (IC50) was 16.6 µM.

For `Cc1cc2c(c(=O)n1CC1CCCO1)C(c1ccc3c(c1)OCO3)C(C#N)C(=N)O2` (stereo not drawn), the 50% inhibitory concentration (IC50) was more than 119 µM.

In the case of `COC(=O)Cn1c(CC(=O)Nc2ccc(Cl)cc2)c(O)n(-c2ccc(Cl)cc2)c1=S`, it took 19.7 µM to reach half-maximal inhibition (IC50).

For the compound `c1ccc2[nH]c(N=NCc3c[nH]c4ccccc34)nc2c1` [1-(1H-benzimidazol-2-yl)-2-[(Z)-indol-3-ylidenemethyl]diazane], inhibition was half-maximal at 32.2 µM (IC50).

`Oc1cc(N(CCc2ccccc2)C(=S)Nc2ccccc2)c(O)n1-c1ccc(Br)cc1` [1-[1-(4-bromophenyl)-2,5-bis(oxidanylidene)pyrrolidin-3-yl]-3-phenyl-1-(2-phenylethyl)thiourea]: half-maximal inhibition (IC50) was put at 0.46 µM.

In turn, `N#Cc1ccccc1CSc1ccc(-c2nc3ccccc3[nH]2)cn1` [2-[5-(1H-Benzoimidazol-2-yl)-pyridin-2-ylsulfanylmethyl]-benzonitrile] registered an IC50 of more than 119 µM.

In turn, `Cc1cc(Br)cc(Br)c1OCC(=O)NNC(=O)Nc1ccccc1` [2-[(2,4-dibromo-6-methylphenoxy)acetyl]-N-phenylhydrazinecarboxamide] showed a half-inhibitory concentration (IC50) of more than 4.39 µM.

The compound `N#Cc1ccccc1CSc1nc2cc(Br)c[nH]c-2n1` [2-[(6-bromo-1H-imidazo[4,5-b]pyridin-2-yl)sulfanylmethyl]benzonitrile] showed an IC50 of more than 119 µM.

The compound `C=C(c1ccc(O)cc1)c1sc(=S)n(CCC(=O)O)c1O` [3-[(5Z)-5-[1-(4-hydroxyphenyl)ethylidene]-4-oxidanylidene-2-sulfanylidene-1,3-thiazolidin-3-yl]propanoic acid] showed an IC50 of 9.47 µM.

`COc1ccc(NC(=O)COC(=O)CCCOc2ccc(Cl)cc2Cl)cc1` [4-(2,4-dichlorophenoxy)butanoic acid [2-(4-methoxyanilino)-2-oxoethyl] ester] came in with an IC50 of more than 119 µM.

In turn, `O=C(Nc1cccnc1)c1ccc(COc2cc(Cl)ccc2Cl)o1` [5-[(2,5-dichlorophenoxy)methyl]-N-(3-pyridinyl)-2-furancarboxamide] came in with a concentration for half-maximal inhibition (IC50) of more than 119 µM.

`Fc1ccccc1CSc1nc2ncc(Br)cc2[nH]1` [6-bromanyl-2-[(2-fluorophenyl)methylsulfanyl]-1H-imidazo[4,5-b]pyridine] displayed an IC50 of more than 119 µM.

`COc1ccccc1NS(=O)(=O)c1cc(NC(=O)Nc2ccccc2)ccc1N1CCCCC1` [MLS000401499]: the IC50 was more than 119 µM.

Consider `O=C(CSc1ccc(-c2nc3ccccc3[nH]2)cn1)Nc1ccc(S(=O)(=O)N2CCCC2)cc1` [MLS000548715], for which the IC50 is more than 119 µM.

`Cc1cc(Cl)ccc1OCCCC(=O)NNC(=O)c1ccccc1O` [N'-[4-(4-chloro-2-methylphenoxy)butanoyl]-2-hydroxybenzohydrazide] had an IC50 of more than 119 µM.

For the compound `Cc1[nH]c2ccccc2c1CN=Nc1nc2ccccc2[nH]1` [N-(1H-Benzoimidazol-2-yl)-N'-[1-(2-methyl-1H-indol-3-yl)-meth-(E)-ylidene]-hydrazine], half-maximal inhibition (IC50) required 36.9 µM.

As to `Cc1ccc2nc(-c3ccc(SCC(=O)Nc4ccc5c(c4)OCCO5)nc3)[nH]c2c1` [N-(2,3-dihydro-1,4-benzodioxin-6-yl)-2-[[5-(6-methyl-1H-benzimidazol-2-yl)-2-pyridinyl]thio]acetamide], the IC50 is more than 119 µM.

As for `COc1cccc(NC(=O)CSC(N)=O)c1` [S-[2-(3-methoxyanilino)-2-oxoethyl] thiocarbamate], the 50% inhibitory concentration (IC50) was 1.57 µM.

Consider `O=C(Nc1ccccc1)Nc1ccc(S(=O)(=O)N2CCCCC2)cc1` [SMR000070822], for which the 50% inhibitory concentration (IC50) was more than 119 µM.

`Oc1cc(SCc2nc3ccccc3[nH]2)c(O)n1-c1cccc(Cl)c1` [SMR000143477]: the half-maximal inhibitory concentration (IC50) amounted to 2.6 µM.

In turn, `COc1cc(CN=Nc2nc3ccccc3[nH]2)ccc1O` [SMR000212232] displayed a half-inhibitory concentration (IC50) of 102 µM.

The compound `O=C(Cc1ccc(Br)cc1)NNC(=O)Nc1ccc(Cl)cc1` [SMR000227759] had a 50% inhibitory concentration (IC50) of more than 119 µM.

In the case of `O=C(CSc1nc2ccc(Cl)cc2[nH]1)c1c[nH]c2ccccc12` [SMR000261830], the half-inhibitory concentration (IC50) was more than 119 µM.

`Clc1cccc(N=NC(Cc2nc3ccccc3[nH]2)c2ccccc2)c1` (stereo not drawn) [SMR000263830] yielded a half-maximal inhibitory concentration (IC50) of 3.09 µM.

`COc1ccc(CC(=O)OCC(=O)Nc2ccc(Br)cc2)cc1` [SMR000353950] gave an IC50 of more than 119 µM.

Compound `CC(N=Nc1nc2ccccc2[nH]1)c1ccc2c(c1)OCO2` (stereo not drawn) [SMR000354227] returned a half-maximal inhibitory concentration (IC50) of more than 119 µM.

The compound `COc1cc(OC)c(OC)cc1CN=Nc1nc2ccccc2[nH]1` [SMR000440059] yielded a half-inhibitory concentration (IC50) of more than 119 µM.

The compound `Cc1csc(CNc2ncnc3ccc(-c4ccccc4Cl)cc23)c1` [SMR001318042] showed a half-maximal inhibitory concentration (IC50) of more than 119 µM.

`COc1ccc(NC(=O)Nc2cccc3cccnc23)cc1` [US9034574, XXIV] came in with a half-inhibitory concentration (IC50) of 2.82 µM.

For `O=C(OCC(=O)c1c[nH]c2ccccc12)c1ccc(OC(F)F)cc1` [[2-(1H-indol-3-yl)-2-oxidanylidene-ethyl] 4-[bis(fluoranyl)methoxy]benzoate], the half-inhibitory concentration (IC50) is more than 119 µM.
